Assays:
TK-10 = experiment: NCI 60 cell line screen, Renal; format: cell-based, human; details: one dose 10 µM
SW-620 = experiment: NCI 60 cell line screen, Colon; format: cell-based, human; details: one dose 10 µM
LOX IMVI = experiment: NCI 60 cell line screen, Melanoma; format: cell-based, human; details: one dose 10 µM
SK-MEL-5 = experiment: NCI 60 cell line screen, Melanoma; format: cell-based, human; details: one dose 10 µM
RXF 393 = experiment: NCI 60 cell line screen, Renal; format: cell-based, human; details: one dose 10 µM
HCC-2998 = experiment: NCI 60 cell line screen, Colon; format: cell-based, human; details: one dose 10 µM
NCI-H322M = experiment: NCI 60 cell line screen, NSCLung; format: cell-based, human; details: one dose 10 µM
EKVX = experiment: NCI 60 cell line screen, NSCLung; format: cell-based, human; details: one dose 10 µM
CCRF-CEM = experiment: NCI 60 cell line screen, Leukaemia; format: cell-based, human; details: one dose 10 µM
HT29 = experiment: NCI 60 cell line screen, Colon; format: cell-based, human
SF-295 = experiment: NCI 60 cell line screen, CNS; format: cell-based, human; details: one dose 10 µM
HOP-62 = experiment: NCI 60 cell line screen, NSCLung; format: cell-based, human; details: one dose 10 µM
MDA-MB-231/ATCC = experiment: NCI 60 cell line screen, Breast; format: cell-based, human; details: one dose 10 µM
HCT-116 = experiment: NCI 60 cell line screen, Colon; format: cell-based, human; details: one dose 10 µM
SK-MEL-2 = experiment: NCI 60 cell line screen, Melanoma; format: cell-based, human; details: one dose 10 µM
SK-MEL-28 = experiment: NCI 60 cell line screen, Melanoma; format: cell-based, human; details: one dose 10 µM
SNB-75 = experiment: NCI 60 cell line screen, CNS; format: cell-based, human; details: one dose 10 µM
HOP-92 = experiment: NCI 60 cell line screen, NSCLung; format: cell-based, human; details: one dose 10 µM
DU-145 = experiment: NCI 60 cell line screen, Prostate; format: cell-based, human; details: one dose 10 µM
COLO 205 = experiment: NCI 60 cell line screen, Colon; format: cell-based, human; details: one dose 10 µM
NCI-H460 = experiment: NCI 60 cell line screen, NSCLung; format: cell-based, human; details: one dose 10 µM
MDA-MB-435 = experiment: NCI 60 cell line screen, Melanoma; format: cell-based, human; details: one dose 10 µM
OVCAR-4 = experiment: NCI 60 cell line screen, Ovarian; format: cell-based, human; details: one dose 10 µM
NCI-H226 = experiment: NCI 60 cell line screen, NSCLung; format: cell-based, human; details: one dose 10 µM
[1] = tested on: MCF-7 human breast cancer cells; experiment: AlamarBlue cell viability assay; format: cell-based; details: Homo sapiens, MCF7, 72 h, MCF-7, 72 h
Method in brief: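 Cytotoxicity in MCF-7 cells seeded at 5 × 10^3 per well, treated after 24 h with compounds at 1 μM and 10 μM for 72 h, vehicle 1% ethanol. AlamarBlue (10% v/v) added for 3–5 h at 37 °C; fluorescence ex 530/em 590 nm, expressed as percent viability of vehicle control; IC50 from dose–response curves.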

U251 = experiment: NCI 60 cell line screen, CNS; format: cell-based, human

Work on `COc1ccc(C2N(c3cc(OC)c(OC)c(OC)c3)C(=O)C2(F)F)cc1F` (stereo not drawn) [Compound 43, 3,3-Difluoro-4-(3-fluoro-4-methoxyphenyl)-1-(3,4,5-trimethoxyphenyl)azetidin-2-one] yielded an inhibition at 10 µM (TK-10; Homo sapiens) of -5.64%, a Growth % (TK-10) of 105.64% and an inhibition at 10 µM (SW-620; Homo sapiens) of 78.8%. It also gave a Growth % (SW-620) of 21.22%, an inhibition at 10 µM (LOX IMVI; Homo sapiens) of 72.9% and a Growth % (LOX IMVI) of 27.06%. For the same compound, the inhibition at 10 µM (SK-MEL-5; Homo sapiens) was 91.9%, the Growth % (SK-MEL-5) was 8.08% and the inhibition at 10 µM (RXF 393; Homo sapiens) was 50.6%. The Growth % (RXF 393) was 49.36%, the inhibition at 10 µM (HCC-2998; Homo sapiens) was 15.8% and the Growth % (HCC-2998) was 84.2%. The inhibition at 10 µM (NCI-H322M; Homo sapiens) was 8.79%, the Growth % (NCI-H322M) was 91.21% and the inhibition at 10 µM (EKVX; Homo sapiens) was 22.3%. The Growth % (EKVX) was 77.7%, the inhibition at 10 µM (CCRF-CEM; Homo sapiens) was 87% and the Growth % (CCRF-CEM) was 12.96%. It also gave an inhibition at 10 µM (HT29; Homo sapiens, HT-29, one dose 10 µM) of 88.8%, a Growth % (HT29; one dose 10 µM) of 11.16% and an inhibition at 10 µM (SF-295; Homo sapiens) of 51.7%. The Growth % (SF-295) was 48.29%, the inhibition at 10 µM (HOP-62; Homo sapiens) was 61.6% and the Growth % (HOP-62) was 38.43%. The inhibition at 10 µM (MDA-MB-231/ATCC; Homo sapiens) was 46%, the Growth % (MDA-MB-231/ATCC) was 54.02% and the inhibition at 10 µM (HCT-116; Homo sapiens) was 94.2%. It also gave a Growth % (HCT-116) of 5.76%, an inhibition at 10 µM (SK-MEL-2; Homo sapiens) of 15.4% and a Growth % (SK-MEL-2) of 84.61%. The inhibition at 10 µM (SK-MEL-28; Homo sapiens) was 22.8%, the Growth % (SK-MEL-28) was 77.22% and the inhibition at 10 µM (SNB-75; Homo sapiens) was 35.3%. It also gave a Growth % (SNB-75) of 64.74%, an inhibition at 10 µM (HOP-92; Homo sapiens) of 39.2% and a Growth % (HOP-92) of 60.84%. For the same compound, the inhibition at 10 µM (DU-145; Homo sapiens) was 74.8%, the Growth % (DU-145) was 25.22% and the inhibition at 10 µM (COLO 205; Homo sapiens) was 83.7%. For the same compound, the Growth % (COLO 205) was 16.32%, the inhibition at 10 µM (NCI-H460; Homo sapiens) was 72.8% and the Growth % (NCI-H460) was 27.15%. The inhibition at 10 µM (MDA-MB-435; Homo sapiens) was 87.1%, the Growth % (MDA-MB-435) was 12.92% and the inhibition at 10 µM (OVCAR-4; Homo sapiens) was 41.7%. For the same compound, the Growth % (OVCAR-4) was 58.34%, the inhibition at 10 µM (NCI-H226; Homo sapiens) was 24.5% and the Growth % (NCI-H226) was 75.53%. For the same compound, the IC50 [1] was 1650 nM, the inhibition at 10 µM (U251; Homo sapiens, U-251, one dose 10 µM) was 58.4% and the Growth % (U251; one dose 10 µM) was 41.61%.

Reference: paper PMC9501633, “Synthesis, Characterisation and Mechanism of Action of Anticancer 3-Fluoroazetidin-2-ones” (Pharmaceuticals, 2022)
